Measured values from ChEMBL document CHEMBL2010722, “Structure-activity relationship study of beta-carboline derivatives as haspin kinase inhibitors” (Bioorg Med Chem Lett, 2012).

What was measured:
[1] = Inhibition of SRM at 10 uM
[2] = target: Serine/threonine-protein kinase DCLK2 (Homo sapiens) (UniProt Q8N568); assay: Inhibition of DCAMKL2 at 10 uM
[3] = target: Protein-tyrosine kinase 2-beta (Homo sapiens) (UniProt Q14289); assay: Inhibition of PYK2 at 10 uM
[4] = target: Discoidin domain-containing receptor 2 (Homo sapiens) (UniProt Q16832); assay: Inhibition of DDR2 at 10 uM
[5] = test system: Epidermal growth factor receptor (Homo sapiens), P00533 [L861Q]; assay: Inhibition of EGFR L861Q mutant at 10 uM; type: protein assay
[6] = test system: Mast/stem cell growth factor receptor Kit (Homo sapiens), P10721 [D816V]; assay: Inhibition of KIT D816V mutant at 10 uM
[7] = Inhibition of CDK4/[…] at 10 uM
[8] = target: Interleukin-1 receptor-associated kinase 4 (Homo sapiens) (UniProt Q9NWZ3); assay: Inhibition of IRAK4 at 10 uM
[9] = target: LKB1-STRAD-MO25 complex (Homo sapiens) (UniProt Q15831+Q7RTN6+Q9Y376); assay: Inhibition of LKB1-MO25a-STRADa at 10 uM; type: protein-complex assay
[10] = target: Protein kinase C alpha type (Homo sapiens) (UniProt P17252); assay: Inhibition of PKCalpha at 10 uM
[11] = target: Non-receptor tyrosine-protein kinase TNK1 (Homo sapiens) (UniProt Q13470); assay: Inhibition of TNK1 at 10 uM
[12] = target: Aurora kinase C (Homo sapiens) (UniProt Q9UQB9); assay: Inhibition of AurC at 10 uM
[13] = target: Protein kinase C epsilon type (Homo sapiens) (UniProt Q02156); assay: Inhibition of PKCepsilon at 10 uM
[14] = target: Cyclin-dependent kinase 2/cyclin E1 (Homo sapiens) (UniProt P24864+P24941); assay: Inhibition of CDK2-Cyclin E1 at 10 uM; type: protein-complex assay
[15] = target: LIM domain kinase 1 (Homo sapiens) (UniProt P53667); assay: Inhibition of LIMK1 at 10 uM
[16] = target: High affinity nerve growth factor receptor (Homo sapiens) (UniProt P04629); assay: Inhibition of TRKA at 10 uM
[17] = target: Tyrosine-protein kinase JAK1 (Homo sapiens) (UniProt P23458); assay: Inhibition of JAK1 at 10 uM
[18] = target: Serine/threonine-protein kinase pim-3 (Homo sapiens) (UniProt Q86V86); assay: Inhibition of PIM3 at 10 uM
[19] = target: Receptor tyrosine-protein kinase erbB-2 (Homo sapiens) (UniProt P04626); assay: Inhibition of HER2 at 10 uM
[20] = target: Maternal embryonic leucine zipper kinase (Homo sapiens) (UniProt Q14680); assay: Inhibition of MELK at 10 uM
Maternal embryonic leucine zipper kinase (Homo sapiens), sequence (Q14680 whole entry, looked up): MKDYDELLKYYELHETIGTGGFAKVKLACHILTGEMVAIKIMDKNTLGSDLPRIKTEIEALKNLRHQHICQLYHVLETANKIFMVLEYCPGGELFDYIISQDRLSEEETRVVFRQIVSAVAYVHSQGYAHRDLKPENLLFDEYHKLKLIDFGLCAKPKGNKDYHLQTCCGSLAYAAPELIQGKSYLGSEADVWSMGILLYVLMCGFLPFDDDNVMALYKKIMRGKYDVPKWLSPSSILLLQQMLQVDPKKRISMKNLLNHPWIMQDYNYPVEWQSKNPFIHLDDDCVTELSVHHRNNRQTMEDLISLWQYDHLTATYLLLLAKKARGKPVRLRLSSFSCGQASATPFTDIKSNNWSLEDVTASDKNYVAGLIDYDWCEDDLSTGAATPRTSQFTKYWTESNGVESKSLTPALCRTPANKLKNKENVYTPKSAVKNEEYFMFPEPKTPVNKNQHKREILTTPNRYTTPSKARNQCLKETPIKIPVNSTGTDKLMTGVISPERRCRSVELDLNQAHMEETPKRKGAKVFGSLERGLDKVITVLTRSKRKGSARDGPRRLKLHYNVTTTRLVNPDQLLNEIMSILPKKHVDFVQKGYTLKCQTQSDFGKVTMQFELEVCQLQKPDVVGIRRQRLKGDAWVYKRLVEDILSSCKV

[21] = target: Ribosomal protein S6 kinase alpha-3 (Homo sapiens) (UniProt P51812); assay: Inhibition of RSK2 N-terminal at 10 uM
[22] = target: Protein-tyrosine kinase 6 (Homo sapiens) (UniProt Q13882); assay: Inhibition of BRK at 10 uM
[23] = target: Proto-oncogene tyrosine-protein kinase receptor Ret (Homo sapiens) (UniProt P07949); assay: Inhibition of RET at 10 uM
[24] = target: Casein kinase I isoform gamma-3 (Homo sapiens) (UniProt Q9Y6M4); assay: Inhibition of CK1g3 at 10 uM
[25] = target: Protein kinase C beta type (Homo sapiens) (UniProt P05771); assay: Inhibition of PKCbeta2 at 10 uM
[26] = target: [Pyruvate dehydrogenase (acetyl-transferring)] kinase isozyme 2, mitochondrial (Homo sapiens) (UniProt Q15119); assay: Inhibition of PDHK2 at 10 uM
[27] = target: Serine/threonine-protein kinase MRCK beta (Homo sapiens) (UniProt Q9Y5S2); assay: Inhibition of MRCKb at 10 uM
Serine/threonine-protein kinase MRCK beta (Homo sapiens), sequence (Q9Y5S2 whole entry): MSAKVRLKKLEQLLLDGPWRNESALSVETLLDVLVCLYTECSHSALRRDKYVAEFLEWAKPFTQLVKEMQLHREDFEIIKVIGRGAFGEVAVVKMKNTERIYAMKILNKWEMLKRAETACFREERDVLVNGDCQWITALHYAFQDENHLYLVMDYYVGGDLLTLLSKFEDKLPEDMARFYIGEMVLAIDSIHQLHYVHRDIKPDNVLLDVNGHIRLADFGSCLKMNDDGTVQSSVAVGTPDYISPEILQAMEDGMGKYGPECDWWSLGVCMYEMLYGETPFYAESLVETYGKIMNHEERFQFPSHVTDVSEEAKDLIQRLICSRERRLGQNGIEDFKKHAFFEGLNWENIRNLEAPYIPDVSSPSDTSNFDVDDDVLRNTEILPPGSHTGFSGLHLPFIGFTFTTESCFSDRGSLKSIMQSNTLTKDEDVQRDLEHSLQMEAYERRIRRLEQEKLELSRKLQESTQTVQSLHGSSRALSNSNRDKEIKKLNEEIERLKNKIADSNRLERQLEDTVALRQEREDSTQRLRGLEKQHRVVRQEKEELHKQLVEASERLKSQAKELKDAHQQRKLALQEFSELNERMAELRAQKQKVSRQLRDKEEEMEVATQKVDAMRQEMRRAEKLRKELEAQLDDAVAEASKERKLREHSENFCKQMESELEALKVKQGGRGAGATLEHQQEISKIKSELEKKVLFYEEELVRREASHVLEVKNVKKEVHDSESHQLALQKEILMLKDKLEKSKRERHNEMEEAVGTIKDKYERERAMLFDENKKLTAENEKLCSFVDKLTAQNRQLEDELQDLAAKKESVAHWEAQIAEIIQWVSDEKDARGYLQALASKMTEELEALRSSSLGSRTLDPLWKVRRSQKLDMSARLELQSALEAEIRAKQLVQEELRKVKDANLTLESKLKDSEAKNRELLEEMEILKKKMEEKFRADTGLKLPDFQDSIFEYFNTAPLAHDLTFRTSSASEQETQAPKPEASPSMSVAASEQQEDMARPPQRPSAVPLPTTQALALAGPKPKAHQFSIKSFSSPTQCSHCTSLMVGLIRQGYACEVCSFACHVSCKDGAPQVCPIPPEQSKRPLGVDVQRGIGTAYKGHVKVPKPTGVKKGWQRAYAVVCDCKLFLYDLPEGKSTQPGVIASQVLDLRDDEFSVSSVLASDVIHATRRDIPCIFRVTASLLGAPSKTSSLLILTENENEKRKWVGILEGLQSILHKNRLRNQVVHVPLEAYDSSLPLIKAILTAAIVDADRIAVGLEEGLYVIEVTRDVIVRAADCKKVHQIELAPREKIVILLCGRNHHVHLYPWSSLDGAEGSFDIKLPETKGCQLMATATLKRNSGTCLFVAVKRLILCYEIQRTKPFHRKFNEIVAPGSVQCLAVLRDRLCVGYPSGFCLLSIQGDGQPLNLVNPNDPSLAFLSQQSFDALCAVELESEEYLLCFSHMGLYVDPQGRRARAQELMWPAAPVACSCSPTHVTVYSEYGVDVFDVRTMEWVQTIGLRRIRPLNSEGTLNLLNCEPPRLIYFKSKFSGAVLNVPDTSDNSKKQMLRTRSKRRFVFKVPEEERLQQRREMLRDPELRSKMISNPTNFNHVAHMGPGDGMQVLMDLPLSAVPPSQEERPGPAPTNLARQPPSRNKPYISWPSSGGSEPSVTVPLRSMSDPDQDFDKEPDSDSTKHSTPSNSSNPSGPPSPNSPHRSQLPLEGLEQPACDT

[28] = target: Megakaryocyte-associated tyrosine-protein kinase (Homo sapiens) (UniProt P42679); assay: Inhibition of CTK at 10 uM
[29] = target: Fibroblast growth factor receptor 2 (Homo sapiens) (UniProt P21802); assay: Inhibition of FGFR2 at 10 uM
Fibroblast growth factor receptor 2 (Homo sapiens), sequence (P21802 22-821 limits assumed): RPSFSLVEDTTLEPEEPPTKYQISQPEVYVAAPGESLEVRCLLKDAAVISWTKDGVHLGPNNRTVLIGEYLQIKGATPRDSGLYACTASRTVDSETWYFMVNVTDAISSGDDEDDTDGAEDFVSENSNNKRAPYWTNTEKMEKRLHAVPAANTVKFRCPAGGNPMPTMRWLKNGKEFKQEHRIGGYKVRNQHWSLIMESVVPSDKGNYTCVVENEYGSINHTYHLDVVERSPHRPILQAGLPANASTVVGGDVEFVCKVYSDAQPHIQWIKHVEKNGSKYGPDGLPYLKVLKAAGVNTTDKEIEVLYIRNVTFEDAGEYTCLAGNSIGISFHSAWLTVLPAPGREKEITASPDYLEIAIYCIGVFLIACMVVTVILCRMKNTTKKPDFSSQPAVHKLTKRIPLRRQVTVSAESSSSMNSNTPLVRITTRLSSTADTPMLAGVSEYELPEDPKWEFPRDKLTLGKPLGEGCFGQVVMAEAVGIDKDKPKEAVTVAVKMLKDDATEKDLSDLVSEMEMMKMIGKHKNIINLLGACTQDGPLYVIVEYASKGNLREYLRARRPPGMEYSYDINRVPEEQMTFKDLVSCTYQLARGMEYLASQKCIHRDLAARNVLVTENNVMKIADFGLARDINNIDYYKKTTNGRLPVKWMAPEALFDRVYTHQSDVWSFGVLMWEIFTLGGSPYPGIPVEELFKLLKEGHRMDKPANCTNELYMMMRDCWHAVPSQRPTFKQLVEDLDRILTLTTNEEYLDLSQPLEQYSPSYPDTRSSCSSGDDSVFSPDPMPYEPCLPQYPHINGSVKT

[30] = target: Serine/threonine-protein kinase PLK1 (Homo sapiens) (UniProt P53350); assay: Inhibition of PLK1 at 10 uM
[31] = target: Mitogen-activated protein kinase kinase kinase 10 (Homo sapiens) (UniProt Q02779); assay: Inhibition of MLK2 at 10 uM
[32] = target: Angiopoietin-1 receptor (Homo sapiens) (UniProt Q02763); assay: Inhibition of TIE2 at 10 uM
[33] = target: Wee1-like protein kinase (Homo sapiens) (UniProt P30291); assay: Inhibition of WEE1 at 10 uM
[34] = target: Mitogen-activated protein kinase kinase kinase 9 (Homo sapiens) (UniProt P80192); assay: Inhibition of MLK1 at 10 uM
[35] = target: Protein kinase C theta type (Homo sapiens) (UniProt Q04759); assay: Inhibition of PKCq at 10 uM
[36] = target: Dual specificity tyrosine-phosphorylation-regulated kinase 1A (Homo sapiens) (UniProt Q13627); conditions: 10 uM
[37] = target: Fibroblast growth factor receptor 4 (Homo sapiens) (UniProt P22455); assay: Inhibition of FGFR4 at 10 uM
[38] = target: Tyrosine-protein kinase JAK3 (Homo sapiens) (UniProt P52333); assay: Inhibition of JAK3 at 10 uM
[39] = target: Serine/threonine-protein kinase Nek7 (Homo sapiens) (UniProt Q8TDX7); assay: Inhibition of NEK7 at 10 uM
Serine/threonine-protein kinase Nek7 (Homo sapiens), sequence (Q8TDX7 whole entry, looked up): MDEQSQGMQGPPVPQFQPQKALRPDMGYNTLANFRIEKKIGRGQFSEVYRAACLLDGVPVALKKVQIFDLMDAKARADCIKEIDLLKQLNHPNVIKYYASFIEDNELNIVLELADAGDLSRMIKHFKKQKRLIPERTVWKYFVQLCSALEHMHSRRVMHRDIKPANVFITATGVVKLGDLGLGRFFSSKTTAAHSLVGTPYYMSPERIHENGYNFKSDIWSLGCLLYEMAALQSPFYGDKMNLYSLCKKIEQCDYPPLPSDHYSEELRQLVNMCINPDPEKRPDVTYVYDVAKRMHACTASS

[40] = target: Death-associated protein kinase 1 (Homo sapiens) (UniProt P53355); assay: Inhibition of DAPK1 at 10 uM
[41] = target: Ephrin type-B receptor 1 (Homo sapiens) (UniProt P54762); assay: Inhibition of EPHB1 at 10 uM
[42] = target: Dual specificity protein kinase TTK (Homo sapiens) (UniProt P33981); assay: Inhibition of TTK at 10 uM
Dual specificity protein kinase TTK (Homo sapiens), sequence (P33981 whole entry): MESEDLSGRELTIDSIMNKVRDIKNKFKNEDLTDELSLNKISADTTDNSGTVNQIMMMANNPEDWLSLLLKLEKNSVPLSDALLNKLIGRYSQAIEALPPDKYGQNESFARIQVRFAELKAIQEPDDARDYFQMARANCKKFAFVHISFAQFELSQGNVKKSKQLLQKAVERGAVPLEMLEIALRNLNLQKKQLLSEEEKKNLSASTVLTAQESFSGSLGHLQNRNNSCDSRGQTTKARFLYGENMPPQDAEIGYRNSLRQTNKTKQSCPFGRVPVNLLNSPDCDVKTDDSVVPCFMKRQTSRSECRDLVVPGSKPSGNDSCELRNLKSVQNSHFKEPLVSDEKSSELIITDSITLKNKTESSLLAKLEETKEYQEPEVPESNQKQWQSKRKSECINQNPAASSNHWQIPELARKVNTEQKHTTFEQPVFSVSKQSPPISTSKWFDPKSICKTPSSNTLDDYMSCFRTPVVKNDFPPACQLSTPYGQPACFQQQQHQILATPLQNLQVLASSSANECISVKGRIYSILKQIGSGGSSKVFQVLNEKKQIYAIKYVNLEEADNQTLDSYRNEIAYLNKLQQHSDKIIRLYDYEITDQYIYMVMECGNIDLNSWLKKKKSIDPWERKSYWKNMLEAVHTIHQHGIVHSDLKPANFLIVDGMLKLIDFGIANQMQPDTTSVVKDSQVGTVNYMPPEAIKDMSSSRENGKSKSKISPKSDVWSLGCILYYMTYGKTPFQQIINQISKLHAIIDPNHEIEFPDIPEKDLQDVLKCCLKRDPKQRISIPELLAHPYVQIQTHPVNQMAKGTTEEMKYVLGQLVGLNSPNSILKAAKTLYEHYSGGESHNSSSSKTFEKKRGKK

[43] = target: Calcium/calmodulin-dependent protein kinase type II subunit gamma (Homo sapiens) (UniProt Q13555); assay: Inhibition of CaMK2g at 10 uM
[44] = target: Inhibitor of nuclear factor kappa-B kinase subunit epsilon (Homo sapiens) (UniProt Q14164); assay: Inhibition of IKKe at 10 uM
Inhibitor of nuclear factor kappa-B kinase subunit epsilon (Homo sapiens), sequence (Q14164 whole entry): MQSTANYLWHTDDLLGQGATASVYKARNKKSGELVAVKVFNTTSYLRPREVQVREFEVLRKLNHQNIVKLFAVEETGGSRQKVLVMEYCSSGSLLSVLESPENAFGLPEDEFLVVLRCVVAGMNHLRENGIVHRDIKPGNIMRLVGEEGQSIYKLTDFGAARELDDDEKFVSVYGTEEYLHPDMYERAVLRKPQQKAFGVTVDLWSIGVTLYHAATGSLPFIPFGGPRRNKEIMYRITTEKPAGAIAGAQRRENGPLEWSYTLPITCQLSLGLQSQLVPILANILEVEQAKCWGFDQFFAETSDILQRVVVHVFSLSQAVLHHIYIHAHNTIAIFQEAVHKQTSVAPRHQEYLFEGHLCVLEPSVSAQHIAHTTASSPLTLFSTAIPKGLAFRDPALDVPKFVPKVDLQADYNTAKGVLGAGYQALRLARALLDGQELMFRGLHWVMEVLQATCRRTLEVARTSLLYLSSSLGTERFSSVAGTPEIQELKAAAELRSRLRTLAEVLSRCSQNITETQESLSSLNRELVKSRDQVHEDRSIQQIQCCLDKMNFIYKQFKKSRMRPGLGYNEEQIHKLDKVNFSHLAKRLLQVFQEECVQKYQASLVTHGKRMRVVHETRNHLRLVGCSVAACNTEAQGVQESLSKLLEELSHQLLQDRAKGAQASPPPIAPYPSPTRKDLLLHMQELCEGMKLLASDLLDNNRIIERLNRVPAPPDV

[45] = target: Calcium/calmodulin-dependent protein kinase type 1D (Homo sapiens) (UniProt Q8IU85); assay: Inhibition of CaMK1d at 10 uM
[46] = target: Leukocyte tyrosine kinase receptor (Homo sapiens) (UniProt P29376); assay: Inhibition of LTK at 10 uM
[47] = target: Mitogen-activated protein kinase kinase kinase 4 (Homo sapiens) (UniProt Q9Y6R4); assay: Inhibition of MAP3K4 at 10 uM
[48] = target: Tyrosine-protein kinase Lyn (Homo sapiens) (UniProt P07948); assay: Inhibition of LYNa at 10 uM

SMILES: COc1ccc2c3ccnc(C(F)(F)F)c3n(CCCCN)c2c1
- inhibition [1]: 0%
- inhibition [2]: 4%
- inhibition [3]: 0%
- inhibition [4]: 7%
- inhibition [5]: 6%
- inhibition [6]: 32%
- inhibition [7]: 27%
- inhibition [8]: 16%
- inhibition [9]: 21%
- inhibition [10]: 26%
- inhibition [11]: 10%
- inhibition [12]: 1%
- inhibition [13]: 72%
- inhibition [14]: 31%
- inhibition [15]: 8%
- inhibition [16]: 8%
- inhibition [17]: 0%
- inhibition [18]: 89%
- inhibition [19]: 0%
- inhibition [20]: 78%
- inhibition [21]: 28%
- inhibition [22]: 1%
- inhibition [23]: 11%
- inhibition [24]: 53%
- inhibition [25]: 28%
- inhibition [26]: 0%
- inhibition [27]: 27%
- inhibition [28]: 25%
- inhibition [29]: 0%
- inhibition [30]: 0%
- inhibition [31]: 5%
- inhibition [32]: 0%
- inhibition [33]: 0%
- inhibition [34]: 0%
- inhibition [35]: 42%
- inhibition [36]: 100%
- inhibition [37]: 6%
- inhibition [38]: 4%
- inhibition [39]: 0%
- inhibition [40]: 41%
- inhibition [41]: 0%
- inhibition [42]: 6%
- inhibition [43]: 78%
- inhibition [44]: 0%
- inhibition [45]: 4%
- inhibition [46]: 5%
- inhibition [47]: 8%
- inhibition [48]: 7%
